Values quoted from earlier work as cited in patent US10080720B2, “Pharmaceutical composition containing docetaxel” (GAINIA (SHANGHAI) PATENT TECHNOLOGY LTD., priority 2014, dated 2018).

## CC(=O)O[C@@]12CO[C@@H]1C[C@H](O)[C@@]1(C)C(=O)[C@H](O)C3=C(C)[C@@H](OC(=O)[C@H](O)[C@@H](NC(=O)OC(C)(C)C)c4ccccc4)C[C@@](O)([C@@H](OC(=O)c4ccccc4)[C@H]21)C3(C)C [docetaxel]
  solubility of docetaxel in water: 6 to 7 µg/mL
